Test results: US8288550B2, “Crystalline form of a benzimidazole-carboxamide medicinal compound” (Theravance, Inc., priority 2005, dated 2012)

Tests used:
[1] = Solid state stability assessment (40° C. and 75% RH); format: physicochemical; details: three months, open glass vials
Method: Solid State Stability Assessment
Samples of the crystalline compound of Form I, prepared according to the process of Example 3, were stored in multiple open glass vials at 40° C. and 75% RH. At specific intervals, the contents of a representative vial was removed and analyzed by DSC, TGA, PXRD, and by HPLC for chemical purity.

[2] = Thermal gravimetric analysis (TGA); format: physicochemical; details: heating rate 10° C./min
Method: Thermogravimetric analysis (TGA) was performed using a TA Instruments Model Q-500 module. Data were collected and analyzed using TA Instruments Thermal Advantage for Q Series™ software. A sample weighing about 2 mg was placed in an aluminum pan on a platinum cradle and scanned from ambient temperature to about 300° C. with a linear heating rate of 10° C./min. The balance and furnace chambers were purged with nitrogen during use.

[3] = Stability to milling of particles; format: physicochemical; details: milled from mean particle size about 470 microns to about 15, 22 or 29 microns
[4] = Dynamic moisture sorption assessment; format: physicochemical
Method: Dynamic Moisture Sorption Assessment
Dynamic moisture sorption (DMS) assessment was performed at 25° C. using a VTI atmospheric microbalance, SGA-100 system (VTI Corp., Hialeah, Fla. 33016). A sample size of approximately 5-10 mg was used and the humidity was set at the ambient value at the start of the analysis. A typical DMS analysis consisted of three scans: ambient to 2% relative humidity (RH), 2% RH to 90% RH, 90% RH to 5% RH at a scan rate of 5% RH/step. The mass was measured every two minutes and the RH was changed to the next value (±5% RH) when the mass of the sample was stable to within 0.02% for 5 consecutive points.

Caco-2 cell monolayer = details: human, Caco-2, 1 h
Method: In Vitro Model of Oral Bioavailability: Caco-2 Permeation Assay
The Caco-2 permeation assay was performed to model the ability of test compounds to pass through the intestine and get into the blood stream after oral administration. The rate at which test compounds in solution permeate a cell monolayer designed to mimic the tight junction of human small intestinal monolayers was determined.
Caco-2 (colon, adenocarcinoma; human) cells were obtained from ATCC (American Type Culture Collection; Rockville, Md.). For the permeation study, cells were seeded at a density of 63,000 cells/cm^2 on pre-wetted transwells polycarbonate filters (Costar; Cambridge, Mass.). A cell monolayer was formed after 21 days in culture. Following cell culture in the transwell plate, the membrane containing the cell monolayer was detached from the transwell plate and inserted into the diffusion chamber (Costar; Cambridge, Mass.). The diffusion chamber was inserted into the heating block which was equipped with circulating external, thermostatically regulated 37° C. water for temperature control. […]
The permeation study was performed with test compound concentrations at 100 μM and with ^14C-mannitol to monitor the integrity of the monolayer. […] Samples were analyzed by HPLC or liquid scintillation counting for test compound and mannitol concentrations. The permeation coefficient (Kp) in cm/sec was calculated.

SMILES	change in DSC, TGA, PXRD after storage [1]	onset of degradation (TGA) [2]	changes by DSC, TGA or PXRD after milling [3]	weight change (moisture sorption) ([4]; 2% to 90% RH, 25° C./room temperature)	weight change (moisture sorption) ([4]; critical humidity range of 40% to 75% RH)	permeation coefficient Kp (Caco-2 cell monolayer)
COC(=O)N1CCC(CN2CCC(CNC(=O)c3cccc4[nH]c(C(C)C)nc34)CC2)CC1 [Form I, 4-(4-{[(2-isopropyl-1H-benzoimidazole-4-carbonyl)amino]methyl}-piperidin-1-ylmethyl)piperidine-1-carboxylic acid methyl ester]	no detectable changes	above 240 °C	no changes detectable	less than 0.25%	less than 0.1%	–
COC(=O)N1CCC(CN2CCC(CNC(=O)c3cccc4[nH]c(C(C)C)nc34)CC2)CC1 [compound of the invention, 4-(4-{[(2-isopropyl-1H-benzoimidazole-4-carbonyl)amino]methyl}-piperidin-1-ylmethyl)piperidine-1-carboxylic acid methyl ester]	–	–	–	–	–	greater than 50×10^−6 cm/sec
